Patent EP4428124A1, “MODULATORS OF SORTILIN ACTIVITY” (Vesper Bio Aps, priority 2023, dated 2024)
Structures can show the parent of a compound that is named as a salt.

How the values were obtained:
Human (6-His)Sortilin = target: T1, Human (6-His)Sortilin (Homo sapiens, UniProt Q99523); assay: Human Sortilin GCI (Grating-Coupled Interferometry) binding assay; settings: immobilised Human (6-His)Sortilin, Creoptix WAVE-RAPID, single concentration, 1:1 kinetic model; read-out: h-Sortilin GCI KD
T1 construct: purchased RnD Systems
T1 sequence (Q99523 78-831): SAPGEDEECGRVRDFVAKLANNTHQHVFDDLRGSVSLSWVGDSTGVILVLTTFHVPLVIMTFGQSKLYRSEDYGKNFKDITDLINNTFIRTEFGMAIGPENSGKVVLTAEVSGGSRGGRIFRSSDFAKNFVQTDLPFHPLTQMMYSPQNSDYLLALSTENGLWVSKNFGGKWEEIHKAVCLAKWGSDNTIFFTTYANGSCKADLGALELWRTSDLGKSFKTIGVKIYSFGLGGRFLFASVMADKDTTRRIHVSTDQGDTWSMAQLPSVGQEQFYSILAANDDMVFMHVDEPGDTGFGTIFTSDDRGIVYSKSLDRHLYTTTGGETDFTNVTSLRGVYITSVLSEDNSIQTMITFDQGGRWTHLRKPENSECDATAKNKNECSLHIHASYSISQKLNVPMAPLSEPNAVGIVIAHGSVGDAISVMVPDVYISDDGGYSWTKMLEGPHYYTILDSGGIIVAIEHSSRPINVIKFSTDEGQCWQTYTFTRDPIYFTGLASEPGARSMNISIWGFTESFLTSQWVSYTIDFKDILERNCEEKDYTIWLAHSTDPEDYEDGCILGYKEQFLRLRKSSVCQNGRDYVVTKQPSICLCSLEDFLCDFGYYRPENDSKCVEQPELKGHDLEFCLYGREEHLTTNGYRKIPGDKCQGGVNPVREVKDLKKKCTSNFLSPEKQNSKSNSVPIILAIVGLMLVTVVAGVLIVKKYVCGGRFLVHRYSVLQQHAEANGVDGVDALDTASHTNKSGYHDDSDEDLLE

h-Sortilin = target: T2, h-Sortilin (Homo sapiens, UniProt Q99523); assay: Neurotensin scintillation proximity assay (SPA); assay type: binding; settings: displacement of 5 nM [3H]-Neurotensin, 150 nM 6his-Sortilin; average of at least 2 determinations
T2 sequence (Q99523 78-831): T1 sequence (Q99523 78-831)
Method: NTS, which is a 13 amino acid neuropeptide, is a sortilin ligand. […] Compound affinity was determined by measuring the displacement of [^3H]-neurotensin binding to h-Sortilin in SPA format. Total volume of 40 µl in 50 mM HEPES pH 7.4 assay buffer containing 100 mM NaCl, 2.0 mM CaCl2, 0.1 % BSA and 0.1 % Tween-20. Compound pre-incubation for 30 minutes at room temperature with 150 nM of 6his-Sortilin before 5 nM [3H]-Neurotensin and Ni chelate imaging beads (Perkin Elmer) were added, after 6 hours the plate was read on a ViewLux with 360 s exposure time. Dose-response evaluation of compounds was performed with 8 concentrations of drugs (covering 3 decades). IC50 values were calculated by nonlinear regression using the sigmoid concentration-response (variable slope) using CDD Vault software. All values reported are average of at least 2 determinations.

[1] = target: T3, Sortilin receptor at the cell surface (Homo sapiens, UniProt Q99523); assay: Progranulin cell surface engagement assay; assay type: cell-based; settings: displacement of 100 nM PGRN-AF647, HEK293 engineered to express sortilin, on ice; average of at least 2 determinations
T3 construct: expressed in transfected cells; host or cells: HEK293
T3 sequence (Q99523 78-831): T1 sequence (Q99523 78-831)
Method: PGRN is a sortilin ligand.
Compound affinity was determined by measuring the ability of compounds to displace the binding of Progranulin-Alexa Fluor 647 (PGRN-AF647) binding to the Sortilin receptor at the cell surface. HEK293 engineered to express sortilin were pre-incubated with compound for 30 minutes on ice in 20 µl assay buffer containing 1% BSA in PBS. Dose-response evaluation of compounds was performed with 10 concentrations of drugs (10 point half log curve). PGRN-AF647 was added at 100 nM concentration in 20 µl assay buffer for 2 hours on ice. Data was acquired using iQue flow cytometer (IntelliCyt). IC50 values were calculated by nonlinear regression using the sigmoid concentration-response (variable slope) using CDD Vault software. All values reported are average of at least 2 determinations.

Structure (SMILES) | Kd (Human (6-His)Sortilin) | IC50 (h-Sortilin) | IC50 [1]
CC(C)(C)CCC(C)(NCc1ccccc1)C(=O)O (racemic) [Example 1, rac-2-benzylamino-2,5,5-trimethylhexanoic acid] | 621 nM | 2500 nM | –
COc1cccc(CNC(C)(CCC(C)(C)C)C(=O)O)c1 (racemic) [Example 4, 2-((3-methoxybenzyl)amino)-2,5,5-trimethylhexanoic acid hydrochloride] | – | 4020 nM | –
COc1cccc(CNC(C)(CCC(C)C)C(=O)O)c1 (racemic) [Example 7, 2-{[(m-methoxyphenyl)methyl]amino}-2,5-dimethylhexanoic acid] | 1270 nM | – | –
CC(C)(C)CC[C@](C)(NCc1ccccc1)C(=O)O [Example 2, (S)-2-benzylamino-2,5,5-trimethylhexanoic acid] | 393 nM | 2970 nM | –
CC(C)(C)CC[C@@](C)(NCc1ccccc1)C(=O)O [Example 3, (R)-2-benzylamino-2,5,5-trimethylhexanoic acid] | 21400 nM | – | –
COc1cccc(CN[C@@](C)(CCC(C)(C)C)C(=O)O)c1 [Example 5, (S)-2-((3-methoxybenzyl)amino)-2,5,5-trimethylhexanoic acid hydrochloride] | – | 1330 nM | –

The next lines start with the values.

Kd (Human (6-His)Sortilin) | IC50 (h-Sortilin) | IC50 [1] | Structure (SMILES)
4220 nM | 840 nM | – | CC(C)(C)CCC(C)(NCc1cncnc1)C(=O)O (racemic) [Example 8, 2,5,5-trimethyl-2-{[(5-pyrimidinyl)methyl]amino}hexanoic acid]
– | 9740 nM | – | CC(C)(C)CCC(C)(NCCCc1ccccc1)C(=O)O (racemic) [Example 9, 2,5,5-trimethyl-2-(3-phenylpropylamino)hexanoic acid]
804 nM | 383 nM | 680 nM | CC(C)(C)CC[C@](C)(NCc1cncnc1)C(=O)O (single isomer, unassigned) [Example 10]
73500 nM | – | – | CC(C)(C)CCC(C)(NCc1cncnc1)C(=O)O (stereo not drawn) [Example 11]
